Reference: patent US10155021B2, “Antimicrobial 4-oxoquinolizines” (Emergent Product Development Gaithersburg Inc., priority 2011, dated 2018)
Values after ≈ are worked out from the molar mass of the structure shown. Values joined by “and” are separate entries in the source; they are usually repeats but may differ in a detail not shown here. Identical values can stand only once.

How the values were obtained:
E. faecium 19434 = experiment: MIC, standard panel of Gram-positive and Gram-negative bacteria (CLSI); format: cell-based, Enterococcus faecium; conditions: Enterococcus faecium, 19434, read-out: MIC E. faecium 19434
S. aureus 25923 = experiment: as above; format: cell-based, Staphylococcus aureus; conditions: Staphylococcus aureus, 25923, read-out: MIC S. aureus 25923
S. epidermis 12228 = experiment: as above; format: cell-based, Staphylococcus epidermis; conditions: Staphylococcus, 12228, read-out: MIC S. epidermis 12228
A. baumanii 19606 = experiment: as above; format: cell-based; conditions: Acinetobacter baumannii, 19606, read-out: MIC A. baumanii 19606
S. aureus 101 = experiment: as above; format: cell-based, Staphylococcus aureus; conditions: Staphylococcus aureus, 101, read-out: MIC S. aureus 101
E. faecalis 29212 = experiment: as above; format: cell-based, Enterococcus faecalis; conditions: Enterococcus faecalis, 29212, read-out: MIC E. faecalis 29212
E. coli 25922 = experiment: as above; format: cell-based, Escherichia coli; conditions: Escherichia coli, 25922, read-out: MIC E. coli 25922
E. cloacae 13047 = experiment: as above; format: cell-based, Enterobacter cloacae; conditions: Enterobacter cloacae, 13047, read-out: MIC E. cloacae 13047
S. aureus 25923 HS = experiment: as above; format: cell-based; conditions: Staphylococcus aureus, read-out: MIC S. aureus 25923 HS
P. aeruginosa 27853 = experiment: as above; format: cell-based, Pseudomonas aeruginosa; conditions: Pseudomonas aeruginosa, 27853, read-out: MIC P. aeruginosa 27853
[1] = system: GN56 Acinetobacter baumannii; experiment: Chequerboard synergy with polymyxin B (FICI); format: cell-based
Description: (§1) A chequerboard technique was used to identify possible synergistic or antagonistic interactions between the 4-oxoquinolizines compounds, levofloxacin and polymyxin B. Levofloxacin was included as a control. […] Final dilutions were made in Mueller-Hinton broth, the specific test medium used for MIC determinations according to CLSI guidelines (CLSI. Methods for Dilution Antimicrobial Susceptibility Tests for Bacteria That Grow Aerobically; Approved Standard-Eighth Edition (2009). CLSI Document M07-A8. CLSI, Wayne, Pa. 19087-1898, USA.). The test medium used was a cation-adjusted Mueller-Hinton Broth II (Becton Dickinson UK Ltd., Oxford Science Park, Oxford, UK, OX4 4DQ).
(§2) The compounds 2, 33 and 35, as well as levofloxacin were tested in combination with polymyxin B on the following isolates: GN31 Acinetobacter baumannii—antibiotic susceptible clinical isolate, GN52 Acinetobacter baumannii—levofloxacin resistant clinical isolate, GN56 Acinetobacter baumannii—levofloxacin resistant clinical isolate, GN48 Klebsiella pneumoniae—NCTC 13443—NDM-1-metallo-R-lactamase and GN10 Pseudomonas aeruginosa—ATCC 27853—antibiotic susceptible reference isolate. All isolates are from the collection maintained at Quotient Bioresearch Ltd., Cambridge, UK.
(§3) The MIC values for the compounds and polymyxin B and levofloxacin were determined by broth microdilution following CLSI guidelines, and the MICs of agents in combination were determined as described by Pillai et.al (Pillai S K, Moellering R C Jr, Eliopoulis G M; Antimicrobial Combinations in Antibiotics in Laboratory Medicine 5th Edition (V. Lorian Ed) (2005) p 365-440). Initial MIC results were used to determine the microtiter plate patterns for the chequerboards. A suitable doubling dilution concentration range was selected such that the combination antibiotic range was at least two concentrations above and four concentrations below the MIC for each isolate. A fixed range of 0.008 to 8 mg/L was tested for polymyxin B except in the case of A. baumannii GN31 where a range of 0.004 to 4 mg/L was tested when in combination with the compounds 2, 33 and 35 as well as levofloxacin.
(§4) From the raw data, fractional inhibitory concentration indices (FICI) were determined for the compounds of the invention and levofloxacin together with polymyxin B for each isolate as follows: FICI=FICX+FICY Where,
(§5) FICX=concentration of the combination antibiotic in a particular row÷MIC of the combination drug alone
(§6) FICY=MIC of polymyxin B in combination÷MIC of the polymyxin B alone
(§7) Additionally isobolograms were created to represent the same data visually. Here, the MIC of polymyxin B was plotted against every concentration of the combination antibiotic up to the MIC.

[2] = system: GN52 Acinetobacter baumannii; experiment: Chequerboard synergy with polymyxin B (FICI); format: cell-based
Description: as §1, §2, §3, §4, §5, §6, §7

[3] = system: GN48 Klebsiella pneumoniae; experiment: Chequerboard synergy with polymyxin B (FICI); format: cell-based
Description: as §1, §2, §3, §4, §5, §6, §7

[4] = system: GN31 Acinetobacter baumannii; experiment: Chequerboard synergy with polymyxin B (FICI); format: cell-based
Description: as §1, §2, §3, §4, §5, §6, §7

Row | Molecule | MIC (E. faecium 19434) [µg/mL] | MIC (S. aureus 25923) [µg/mL] | MIC (S. epidermis 12228) [µg/mL] | MIC (A. baumanii 19606) [µg/mL] | MIC (S. aureus 101) [µg/mL] | MIC (E. faecalis 29212) [µg/mL] | MIC (E. coli 25922) [µg/mL] | MIC (E. cloacae 13047) [µg/mL] | MIC (S. aureus 25923 HS) [µg/mL] | MIC (P. aeruginosa 27853) [µg/mL] | Polymyxin B MIC alone [1] [µg/mL] | Polymyxin B MIC alone [2] [µg/mL] | Polymyxin B MIC alone [3] [µg/mL] | Polymyxin B MIC alone [4]
1 | CN[C@H](CC(C)C)C(=O)N[C@H]1C(=O)N[C@@H](CC(N)=O)C(=O)N[C@H]2C(=O)N[C@H]3C(=O)N[C@H](C(=O)N[C@H](C(=O)O)c4cc(O)cc(O)c4-c4cc3ccc4O)[C@H](O)c3ccc(c(Cl)c3)Oc3cc2cc(c3O[C@@H]2O[C@H](CO)[C@@H](O)[C@H](O)[C@H]2O[C@H]2C[C@](C)(N)[C@H](O)[C@H](C)O2)Oc2ccc(cc2Cl)[C@H]1O [Vancomycin, reference compound] | 1 (≈ 0.69 µM) | 2 (≈ 1.38 µM) | 2 (≈ 1.38 µM) | > 128 | 2 (≈ 1.38 µM) | 2 (≈ 1.38 µM) | > 128 | > 128 | 2 (≈ 1.38 µM) | > 128 | – | – | – | –
2 | Polymyxin B | – | – | – | – | – | – | – | – | – | – | 0.5 | 0.5 | 0.5 | 0.25 µg/mL and 0.5 µg/mL
